Source: BindingDB's records for patent US8575203 (Boehringer Ingelheim International, 2013)
pIC50: −log10 of the molar value.

Molecular target: T1, 3-phosphoinositide-dependent protein kinase 1 (Homo sapiens, UniProt O15530)
T1 sequence (O15530 whole entry): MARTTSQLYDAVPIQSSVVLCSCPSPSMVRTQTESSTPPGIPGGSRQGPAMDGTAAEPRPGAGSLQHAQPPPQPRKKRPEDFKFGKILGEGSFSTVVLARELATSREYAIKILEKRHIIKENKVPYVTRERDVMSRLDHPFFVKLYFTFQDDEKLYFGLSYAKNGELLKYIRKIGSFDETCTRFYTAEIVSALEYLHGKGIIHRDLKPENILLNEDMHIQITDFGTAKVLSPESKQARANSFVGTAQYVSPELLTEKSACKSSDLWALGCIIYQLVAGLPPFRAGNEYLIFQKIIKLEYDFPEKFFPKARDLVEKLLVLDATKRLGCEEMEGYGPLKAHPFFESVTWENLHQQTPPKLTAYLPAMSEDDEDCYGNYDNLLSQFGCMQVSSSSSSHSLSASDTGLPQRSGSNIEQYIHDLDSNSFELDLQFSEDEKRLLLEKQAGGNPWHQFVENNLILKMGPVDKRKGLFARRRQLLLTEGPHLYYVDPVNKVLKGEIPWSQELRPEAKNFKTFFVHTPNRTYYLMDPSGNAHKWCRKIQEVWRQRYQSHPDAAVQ
Assay: Kinase Assay
Procedure: The activity of the compounds according to the invention on the kinase PDK1 which inhibits the signal transduction pathway is determined in an in vitro kinase assay with recombinantly prepared protein.

pIC50: 6.73
SMILES: CN(C)C(=O)c1cnc2ccc(C#CCNC(=O)c3cncn(Cc4ccc(F)c(F)c4)c3=O)cc2n1 [US8575203, II-70]
